Laboratory results from PMC9851200, “Multiparameter phenotypic screening for endogenous TFEB and TFE3 translocation identifies novel chemical series modulating lysosome function” (Autophagy, 2022).

How the values were obtained:
Assay type in all cases: binding
[1] = biological target: T1, kinases (KINOMEscan panel) (Homo sapiens, UniProt Q8TDC3); details: BRSK1; NEW KINOMEscan
T1 sequence (Q8TDC3 1-778): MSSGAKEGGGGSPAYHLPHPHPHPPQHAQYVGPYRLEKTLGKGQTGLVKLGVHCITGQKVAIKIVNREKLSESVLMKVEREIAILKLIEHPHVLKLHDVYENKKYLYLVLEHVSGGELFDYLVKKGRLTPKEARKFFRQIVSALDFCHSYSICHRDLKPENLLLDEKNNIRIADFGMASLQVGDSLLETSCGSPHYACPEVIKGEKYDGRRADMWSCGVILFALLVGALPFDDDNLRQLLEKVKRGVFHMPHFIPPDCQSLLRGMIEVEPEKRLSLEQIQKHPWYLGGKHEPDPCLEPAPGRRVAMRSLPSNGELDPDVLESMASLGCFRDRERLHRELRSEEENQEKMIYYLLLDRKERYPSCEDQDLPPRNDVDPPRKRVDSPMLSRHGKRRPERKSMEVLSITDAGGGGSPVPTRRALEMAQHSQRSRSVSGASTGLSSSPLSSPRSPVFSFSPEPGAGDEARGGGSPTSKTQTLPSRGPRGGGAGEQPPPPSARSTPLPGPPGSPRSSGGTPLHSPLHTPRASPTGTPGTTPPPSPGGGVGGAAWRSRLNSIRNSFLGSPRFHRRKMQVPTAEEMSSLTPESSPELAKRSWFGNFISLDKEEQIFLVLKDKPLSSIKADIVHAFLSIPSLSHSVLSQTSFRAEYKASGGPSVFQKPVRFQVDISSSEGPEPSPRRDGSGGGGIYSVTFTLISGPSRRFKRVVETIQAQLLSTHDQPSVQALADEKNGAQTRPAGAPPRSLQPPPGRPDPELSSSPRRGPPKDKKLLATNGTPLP

[2] = biological target: T2, kinases (KINOMEscan panel) (Homo sapiens, UniProt Q9UPZ9); details: CILK1; NEW KINOMEscan
T2 sequence (Q9UPZ9 1-632): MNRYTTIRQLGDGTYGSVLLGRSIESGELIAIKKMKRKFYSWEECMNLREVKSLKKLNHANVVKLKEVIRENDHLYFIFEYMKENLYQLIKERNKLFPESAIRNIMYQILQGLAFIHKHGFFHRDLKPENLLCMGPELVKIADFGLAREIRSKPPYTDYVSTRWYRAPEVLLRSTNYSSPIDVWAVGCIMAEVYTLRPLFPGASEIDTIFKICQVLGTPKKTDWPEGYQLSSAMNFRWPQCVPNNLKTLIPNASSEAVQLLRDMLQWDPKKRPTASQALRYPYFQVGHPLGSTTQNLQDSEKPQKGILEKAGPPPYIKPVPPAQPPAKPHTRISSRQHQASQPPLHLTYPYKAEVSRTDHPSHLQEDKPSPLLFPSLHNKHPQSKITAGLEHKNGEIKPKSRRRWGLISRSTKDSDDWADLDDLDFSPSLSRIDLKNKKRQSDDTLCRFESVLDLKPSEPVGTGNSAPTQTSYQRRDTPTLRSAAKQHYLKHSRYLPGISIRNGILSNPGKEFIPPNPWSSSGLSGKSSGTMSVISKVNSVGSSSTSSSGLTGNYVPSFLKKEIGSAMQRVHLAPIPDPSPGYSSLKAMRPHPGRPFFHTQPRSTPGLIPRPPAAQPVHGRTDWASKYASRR

[3] = biological target: kinases (KINOMEscan panel) (Homo sapiens, UniProt Q9Y4K4); details: kinase MAP4K5; NEW KINOMEscan
Chain of kinases (KINOMEscan panel) (Homo sapiens, UniProt Q9Y4K4) (Q9Y4K4 whole entry): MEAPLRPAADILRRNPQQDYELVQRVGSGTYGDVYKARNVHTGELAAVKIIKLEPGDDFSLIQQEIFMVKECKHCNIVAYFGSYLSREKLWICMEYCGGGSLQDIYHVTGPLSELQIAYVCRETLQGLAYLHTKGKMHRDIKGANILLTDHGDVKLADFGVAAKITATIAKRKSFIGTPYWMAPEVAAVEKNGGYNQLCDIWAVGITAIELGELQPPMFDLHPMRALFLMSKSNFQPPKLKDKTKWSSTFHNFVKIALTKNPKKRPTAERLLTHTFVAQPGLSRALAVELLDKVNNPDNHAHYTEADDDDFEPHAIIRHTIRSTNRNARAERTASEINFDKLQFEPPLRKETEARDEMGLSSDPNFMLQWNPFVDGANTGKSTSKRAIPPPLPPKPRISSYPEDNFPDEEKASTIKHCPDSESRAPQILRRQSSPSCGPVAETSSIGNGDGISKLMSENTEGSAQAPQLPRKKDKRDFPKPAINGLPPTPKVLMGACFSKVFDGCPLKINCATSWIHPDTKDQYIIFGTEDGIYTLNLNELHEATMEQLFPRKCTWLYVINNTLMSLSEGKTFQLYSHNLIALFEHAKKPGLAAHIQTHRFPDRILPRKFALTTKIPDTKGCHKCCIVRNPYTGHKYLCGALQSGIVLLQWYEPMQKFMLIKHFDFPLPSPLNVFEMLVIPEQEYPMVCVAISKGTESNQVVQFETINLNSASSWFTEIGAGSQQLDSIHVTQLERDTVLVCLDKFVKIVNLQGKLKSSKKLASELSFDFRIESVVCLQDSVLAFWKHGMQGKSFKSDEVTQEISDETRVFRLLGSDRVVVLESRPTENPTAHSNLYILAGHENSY

[4] = biological target: kinases (KINOMEscan panel) (Homo sapiens, UniProt Q06187); details: kinase BTK; NEW KINOMEscan
Chain of kinases (KINOMEscan panel) (Homo sapiens, UniProt Q06187) (Q06187 whole entry): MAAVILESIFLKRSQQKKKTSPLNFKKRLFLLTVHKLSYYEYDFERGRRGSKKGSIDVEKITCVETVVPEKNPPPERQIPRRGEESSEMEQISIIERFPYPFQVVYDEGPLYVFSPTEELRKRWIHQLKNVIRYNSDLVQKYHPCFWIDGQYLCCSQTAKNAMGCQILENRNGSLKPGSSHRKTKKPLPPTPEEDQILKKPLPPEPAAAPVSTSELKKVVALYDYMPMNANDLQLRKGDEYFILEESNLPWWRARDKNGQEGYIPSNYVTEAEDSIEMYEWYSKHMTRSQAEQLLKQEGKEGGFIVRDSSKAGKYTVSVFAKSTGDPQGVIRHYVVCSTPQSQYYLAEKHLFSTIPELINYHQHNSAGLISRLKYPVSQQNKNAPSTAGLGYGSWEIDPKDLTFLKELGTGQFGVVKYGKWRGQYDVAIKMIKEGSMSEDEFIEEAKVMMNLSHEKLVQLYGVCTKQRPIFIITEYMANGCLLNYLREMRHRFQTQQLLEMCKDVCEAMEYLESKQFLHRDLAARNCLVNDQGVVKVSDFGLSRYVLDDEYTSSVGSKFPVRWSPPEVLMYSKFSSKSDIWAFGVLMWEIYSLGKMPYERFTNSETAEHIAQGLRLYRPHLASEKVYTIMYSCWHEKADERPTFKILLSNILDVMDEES

[5] = biological target: kinases (KINOMEscan panel) (Homo sapiens, UniProt P30291); details: WEE1; NEW KINOMEscan
[6] = biological target: T3, kinases (KINOMEscan panel) (Homo sapiens, UniProt Q14164)
T3 sequence (Q14164 1-716): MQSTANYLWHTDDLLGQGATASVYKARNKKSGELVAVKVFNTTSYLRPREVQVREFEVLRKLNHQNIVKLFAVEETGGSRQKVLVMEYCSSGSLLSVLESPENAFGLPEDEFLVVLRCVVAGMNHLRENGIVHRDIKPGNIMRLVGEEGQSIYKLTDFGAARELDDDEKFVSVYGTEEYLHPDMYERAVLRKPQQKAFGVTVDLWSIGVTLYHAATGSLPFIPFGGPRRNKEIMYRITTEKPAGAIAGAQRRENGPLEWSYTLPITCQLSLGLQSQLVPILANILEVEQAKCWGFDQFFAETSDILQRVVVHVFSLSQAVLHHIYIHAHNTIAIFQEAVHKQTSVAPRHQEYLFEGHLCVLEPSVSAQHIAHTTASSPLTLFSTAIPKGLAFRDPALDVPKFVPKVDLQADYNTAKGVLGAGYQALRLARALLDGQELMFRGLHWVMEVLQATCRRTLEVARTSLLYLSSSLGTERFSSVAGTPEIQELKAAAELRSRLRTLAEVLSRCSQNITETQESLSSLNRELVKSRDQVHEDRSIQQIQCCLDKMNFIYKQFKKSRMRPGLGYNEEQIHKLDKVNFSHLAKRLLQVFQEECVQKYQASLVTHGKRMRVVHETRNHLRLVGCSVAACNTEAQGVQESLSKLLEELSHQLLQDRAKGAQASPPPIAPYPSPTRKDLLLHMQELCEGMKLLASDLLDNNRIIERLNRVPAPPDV

[7] = biological target: kinases (KINOMEscan panel) (Homo sapiens, UniProt P42336, H1047L); details: NEW KINOMEscan
Chain of kinases (KINOMEscan panel) (Homo sapiens, UniProt P42336, H1047L) (P42336 whole entry H1047L): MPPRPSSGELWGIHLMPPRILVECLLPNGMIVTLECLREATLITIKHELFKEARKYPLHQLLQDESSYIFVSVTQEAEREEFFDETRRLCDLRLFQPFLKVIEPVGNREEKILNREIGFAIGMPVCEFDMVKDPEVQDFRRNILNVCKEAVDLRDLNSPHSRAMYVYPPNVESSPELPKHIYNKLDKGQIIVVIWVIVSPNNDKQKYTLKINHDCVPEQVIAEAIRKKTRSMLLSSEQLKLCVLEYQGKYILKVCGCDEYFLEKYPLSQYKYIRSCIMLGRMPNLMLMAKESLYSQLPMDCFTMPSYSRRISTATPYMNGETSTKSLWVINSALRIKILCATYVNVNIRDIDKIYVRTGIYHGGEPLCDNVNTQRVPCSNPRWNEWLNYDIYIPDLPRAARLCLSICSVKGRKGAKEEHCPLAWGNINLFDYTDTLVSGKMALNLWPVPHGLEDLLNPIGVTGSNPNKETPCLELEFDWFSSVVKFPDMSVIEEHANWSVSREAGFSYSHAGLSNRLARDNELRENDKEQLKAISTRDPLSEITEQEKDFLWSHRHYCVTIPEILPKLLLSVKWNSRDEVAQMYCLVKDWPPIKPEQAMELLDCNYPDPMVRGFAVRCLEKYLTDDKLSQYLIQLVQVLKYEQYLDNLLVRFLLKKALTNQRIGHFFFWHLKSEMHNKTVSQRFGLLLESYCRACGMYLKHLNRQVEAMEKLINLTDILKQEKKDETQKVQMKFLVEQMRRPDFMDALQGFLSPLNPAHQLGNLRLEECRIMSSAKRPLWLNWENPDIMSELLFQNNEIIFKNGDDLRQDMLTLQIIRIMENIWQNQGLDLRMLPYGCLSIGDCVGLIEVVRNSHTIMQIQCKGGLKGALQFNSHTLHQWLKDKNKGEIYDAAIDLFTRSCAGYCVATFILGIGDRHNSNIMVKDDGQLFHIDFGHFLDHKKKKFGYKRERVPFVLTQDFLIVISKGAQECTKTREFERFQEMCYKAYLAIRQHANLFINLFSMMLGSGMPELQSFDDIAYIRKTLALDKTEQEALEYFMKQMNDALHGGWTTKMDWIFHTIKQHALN

[8] = biological target: kinases (KINOMEscan panel) (Homo sapiens, UniProt P42336, E545A); details: NEW KINOMEscan
Chain of kinases (KINOMEscan panel) (Homo sapiens, UniProt P42336, E545A) (P42336 whole entry E545A): as the sequence (P42336 whole entry H1047L) above, with E545A, L1047H counted along it

[9] = biological target: kinases (KINOMEscan panel) (Homo sapiens, UniProt Q14012); details: CAMK1; NEW KINOMEscan
Chain of kinases (KINOMEscan panel) (Homo sapiens, UniProt Q14012) (Q14012 whole entry): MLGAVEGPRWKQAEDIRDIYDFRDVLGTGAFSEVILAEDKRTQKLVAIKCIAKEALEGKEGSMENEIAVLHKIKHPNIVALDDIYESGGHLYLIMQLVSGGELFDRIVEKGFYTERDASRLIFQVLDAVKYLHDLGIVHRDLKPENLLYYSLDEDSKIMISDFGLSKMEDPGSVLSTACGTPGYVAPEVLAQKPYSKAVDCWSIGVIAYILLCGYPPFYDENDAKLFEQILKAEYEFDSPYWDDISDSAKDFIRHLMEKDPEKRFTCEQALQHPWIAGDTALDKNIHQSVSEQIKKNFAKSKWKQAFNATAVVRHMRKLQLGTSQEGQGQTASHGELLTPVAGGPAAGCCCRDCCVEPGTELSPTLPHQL

[10] = biological target: kinases (KINOMEscan panel) (Homo sapiens, UniProt P48736); details: kinase PIK3CG; NEW KINOMEscan
Chain of kinases (KINOMEscan panel) (Homo sapiens, UniProt P48736) (P48736 whole entry): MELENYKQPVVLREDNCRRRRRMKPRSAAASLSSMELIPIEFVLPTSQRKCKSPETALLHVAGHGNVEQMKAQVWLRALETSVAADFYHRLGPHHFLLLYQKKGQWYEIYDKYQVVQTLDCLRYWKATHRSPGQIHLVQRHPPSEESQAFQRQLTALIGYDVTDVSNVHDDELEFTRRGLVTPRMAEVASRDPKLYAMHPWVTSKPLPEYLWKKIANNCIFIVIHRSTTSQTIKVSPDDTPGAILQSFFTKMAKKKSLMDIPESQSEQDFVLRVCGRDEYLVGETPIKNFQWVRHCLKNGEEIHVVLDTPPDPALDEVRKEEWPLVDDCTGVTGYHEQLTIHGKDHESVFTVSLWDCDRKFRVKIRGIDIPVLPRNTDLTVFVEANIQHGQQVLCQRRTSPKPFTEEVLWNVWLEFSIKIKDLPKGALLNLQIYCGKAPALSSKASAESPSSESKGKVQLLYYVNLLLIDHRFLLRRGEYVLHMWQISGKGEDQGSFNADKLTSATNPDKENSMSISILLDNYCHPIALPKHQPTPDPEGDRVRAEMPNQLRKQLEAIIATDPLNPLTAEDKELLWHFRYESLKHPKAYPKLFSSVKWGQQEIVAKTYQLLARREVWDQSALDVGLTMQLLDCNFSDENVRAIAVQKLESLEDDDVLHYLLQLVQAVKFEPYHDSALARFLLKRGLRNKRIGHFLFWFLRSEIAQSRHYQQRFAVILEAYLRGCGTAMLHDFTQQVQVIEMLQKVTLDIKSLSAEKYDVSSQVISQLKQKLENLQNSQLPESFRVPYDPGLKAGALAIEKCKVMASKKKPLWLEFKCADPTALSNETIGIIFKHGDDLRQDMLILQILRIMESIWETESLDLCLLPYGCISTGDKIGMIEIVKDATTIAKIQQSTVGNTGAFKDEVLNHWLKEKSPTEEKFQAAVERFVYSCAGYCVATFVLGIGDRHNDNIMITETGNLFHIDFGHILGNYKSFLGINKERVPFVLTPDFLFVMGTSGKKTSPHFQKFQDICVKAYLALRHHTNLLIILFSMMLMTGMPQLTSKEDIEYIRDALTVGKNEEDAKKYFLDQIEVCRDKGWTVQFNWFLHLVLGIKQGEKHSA

[11] = biological target: kinases (KINOMEscan panel) (Homo sapiens, UniProt Q00532); details: CDKL1; NEW KINOMEscan
Chain of kinases (KINOMEscan panel) (Homo sapiens, UniProt Q00532) (Q00532 whole entry): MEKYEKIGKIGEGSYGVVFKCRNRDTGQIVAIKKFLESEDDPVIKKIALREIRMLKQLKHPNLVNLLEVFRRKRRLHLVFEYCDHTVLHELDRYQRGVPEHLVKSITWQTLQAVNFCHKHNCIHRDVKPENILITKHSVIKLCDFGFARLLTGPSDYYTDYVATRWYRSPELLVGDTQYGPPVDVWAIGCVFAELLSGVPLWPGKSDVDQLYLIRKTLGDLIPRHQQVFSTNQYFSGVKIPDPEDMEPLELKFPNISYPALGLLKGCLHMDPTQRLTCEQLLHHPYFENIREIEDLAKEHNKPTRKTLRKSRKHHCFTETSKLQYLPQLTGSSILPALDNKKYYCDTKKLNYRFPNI

[12] = biological target: kinases (KINOMEscan panel) (Homo sapiens, UniProt P36888, D835V); details: NEW KINOMEscan

Row | SMILES | KINOMEscan BRSK1 [1] | KINOMEscan CILK1 [2] | KINOMEscan MAP4K5 [3] | KINOMEscan BTK [4] | KINOMEscan WEE1 [5] | KINOMEscan IKBKE/IKK-epsilon [6] | KINOMEscan PIK3CA(H1047L) [7] | KINOMEscan PIK3CA(E545A) [8] | KINOMEscan CAMK1 [9] | KINOMEscan PIK3CG [10] | KINOMEscan CDKL1 [11] | KINOMEscan FLT3(D835V) [12]
1 | Cc1cccc(-c2nc(Nc3ccc4nn(C)cc4c3)c3ccccc3n2)n1 [NK167] | 0 | 0 | 0 | 0 | 0 | 0 | 4 | 31 | 0 | 0 | 44 | 19
2 | Cc1cccc(-c2nc(N(C)c3ccc4ncsc4c3)c3ccccc3n2)n1 [NK-161] | 0 | 0 | 0 | 10 | 0 | 0 | 23 | 14 | 0 | 8 | 36 | 30
